# From publication PMC8400806, “Discovery of Amide-Functionalized Benzimidazolium Salts as Potent α-Glucosidase Inhibitors” (Molecules, 2021)
# “Also recorded” adds a separate entry of the source. Where a name gives a salt, the structure may show the parent alone. Read-outs that look alike come from different tables or passages of the source.
# Experiments:
# α-glucosidase enzyme = molecular target: T1, α-glucosidase enzyme (Saccharomyces cerevisiae, UniProt P53341); assay: biochemical; assay type: biochemical; conditions: for α-glucosidase inhibitory activity, in words: verbal rating in the SAR discussion
# T1 construct: purchased Sigma-Aldrich, Munich, Germany
# Description: The solution of the α-glucosidase enzyme (obtained from Saccharomyces cerevisiae (Sigma-Aldrich, Munich, Germany)) was prepared in phosphate buffer (pH 6.8, 100 mM). The synthesized compounds were dissolved in dimethyl sulfoxide (DMSO). […] Afterwards, 40 μL of 5 mM p-nitrophenyl-α-D-glucopyranoside (Sigma-Aldrich, Munich, Germany) was poured into each well and further incubated for an additional half-hour. […] Acarbose (Sigma-Aldrich, Munich, Germany) and DMSO were used as reference inhibitors and negative control, respectively. The tests were conducted in triplicate and percent inhibitions were calculated using the following formula: % Inhibition = [(A control − A sample)/A control] × 100 where ‘A’ stands for absorbance.
# The IC50 values of the synthesized compounds and acarbose were also determined.
# T1 sequence (P53341 whole entry): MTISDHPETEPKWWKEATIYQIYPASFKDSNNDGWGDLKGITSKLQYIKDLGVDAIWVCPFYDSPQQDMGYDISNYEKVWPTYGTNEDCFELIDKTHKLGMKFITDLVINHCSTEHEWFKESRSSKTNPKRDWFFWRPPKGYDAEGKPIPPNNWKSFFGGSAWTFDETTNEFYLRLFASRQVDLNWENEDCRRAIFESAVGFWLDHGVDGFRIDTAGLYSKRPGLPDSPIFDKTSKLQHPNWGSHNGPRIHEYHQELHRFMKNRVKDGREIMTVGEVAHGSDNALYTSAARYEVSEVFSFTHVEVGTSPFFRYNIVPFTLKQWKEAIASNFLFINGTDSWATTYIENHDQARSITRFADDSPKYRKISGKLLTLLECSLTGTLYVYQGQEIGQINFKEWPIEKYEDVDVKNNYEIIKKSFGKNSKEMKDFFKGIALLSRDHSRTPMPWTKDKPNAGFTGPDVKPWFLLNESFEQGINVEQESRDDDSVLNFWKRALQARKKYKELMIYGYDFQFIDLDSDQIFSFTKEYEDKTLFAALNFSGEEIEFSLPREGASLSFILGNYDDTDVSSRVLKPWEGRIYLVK
Compound,melting point [°C],IC50 (α-glucosidase enzyme) [µM],"α-glucosidase inhibitory activity, in words (α-glucosidase enzyme)","IC50 (α-glucosidase enzyme; S. cerevisiae enzyme 0.5 U/mL, phosphate buffer pH 6.8, 37 °C, triplicate, read-out: IC50 α-glucosidase inhibition) [µM]","α-glucosidase inhibitory potential, fold higher than the standard drug acarbose (α-glucosidase enzyme; from IC50 values versus acarbose) [fold]"
"Cc1n(Cc2ccccc2)c2ccccc2[n+]1CC(=O)Nc1ccc(Cl)cc1.[Br-] [Compound 10b, 1-Benzyl-3-[2-{(4-chlorophenyl)amino}-2-oxoethyl]-2-methyl-1H-benzo[d]imidazol-3-ium bromide]",178 to 180,60 ± 0.041,,,
"O=C(C[n+]1cn(Cc2ccccc2)c2ccccc21)Nc1ccc([N+](=O)[O-])cc1.[Br-] [Compound 9h, 1-Benzyl-3-[2{(4-nitrophenyl)amino}-2-oxoethyl]-1H-benzo[d]imidazol-3-ium bromide]",152 to 153,,,,
"Cc1ccccc1NC(=O)C[n+]1cn(Cc2ccccc2)c2ccccc21.[Br-] [Compound 9i, 1-Benzyl-3-{2-oxo-2-(o-tolylamino)ethyl}-1H-benzo[d]imidazol-3-ium bromide]",162 to 163,259.86 ± 0.043,,,
"O=C(C[n+]1cn(Cc2ccccc2)c2ccccc21)Nc1cccc([N+](=O)[O-])c1.[Br-] [Compound 9g, 1-Benzyl-3-[2-{(3-nitrophenyl)amino}-2-oxoethyl]-1H-benzo[d]imidazol-3-ium bromide]",162 to 163,215.73 ± 0.112,,,
"Cc1n(Cc2ccccc2)c2ccccc2[n+]1CC(=O)Nc1ccc(Br)cc1.[Br-] [Compound 10e, 1-Benzyl-3-[2-{(4-bromophenyl)amino}-2-oxoethyl]-2-methyl-1H-benzo[d]imidazol-3-ium bromide]",212,30 ± 0.049,higher activity than acarbose,,
"Cc1n(Cc2ccccc2)c2ccccc2[n+]1CC(=O)Nc1ccc([N+](=O)[O-])cc1 (as salt: bromide) [Compound 10h, 1-Benzyl-2-methyl-3-[2-{(4-nitrophenyl)amino)}-2-oxoethyl]-1H-benzo[d]imidazol-3-ium bromide]",222 to 224,,,,
"Cc1cccc(NC(=O)C[n+]2cn(Cc3ccccc3)c3ccccc32)c1.[Br-] [Compound 9j, 1-Benzyl-3-{2-oxo-2-(m-tolylamino)ethyl}-1H-benzo[d]imidazol-3-ium bromide]",132 to 134,200.14 ± 0.039,,,
"Cc1n(Cc2ccccc2)c2ccccc2[n+]1CC(=O)Nc1ccccc1Br [Compound 10c, 1-Benzyl-3-[2-{(2-bromophenyl)amino)}-2-oxoethyl]-2-methyl-1H-benzo[d]imidazol-3-ium bromide]",,46 ± 0.106,higher activity than acarbose,,
"Cc1n(Cc2ccccc2)c2ccccc2[n+]1CC(=O)Nc1cccc([N+](=O)[O-])c1.[Br-] [Compound 10g, 1-Benzyl-2-methyl-3-[2-{(3-nitrophenyl)amino}-2-oxoethyl]-1H-benzo[d]imidazol-3-ium bromide]",180 to 182,19 ± 0.086,promising α-glucosidase inhibitory results,,
"COc1ccc(NC(=O)C[n+]2cn(Cc3ccccc3)c3ccccc32)cc1.[Br-] [Compound 9m, 1-Benzyl-3-[2-{(4-methoxyphenyl)amino}-2-oxoethyl]-1H-benzo[d]imidazol-3-ium bromide]",171 to 173,279.28 ± 0.03,lowest α-glucosidase inhibitory results in their respective series,,
"COc1ccccc1NC(=O)C[n+]1cn(Cc2ccccc2)c2ccccc21.[Br-] [Compound 9l, 1-Benzyl-3-[2-{(2-methoxyphenyl)amino}-2-oxoethyl]-1H-benzo[d]imidazol-3-ium bromide]",188 to 189,74.94 ± 0.028,,,
"Cc1n(Cc2ccccc2)c2ccccc2[n+]1CC(=O)Nc1ccccc1[N+](=O)[O-].[Br-] [Compound 10f, 1-Benzyl-2-methyl-3-[2-{(2-nitrophenyl)amino}-2-oxoethyl]-1H-benzo[d]imidazol-3-ium bromide]",,60 ± 0.025,considerable decline in activity,,
"Cc1ccc(NC(=O)C[n+]2c(C)n(Cc3ccccc3)c3ccccc32)cc1.[Br-] [Compound 10k, 1-Benzyl-2-methyl-3-{2-oxo-2-(p-tolylamino)ethyl}-1H-benzo[d]imidazol-3-ium bromide]",220 to 221,32.27 ± 0.05,moderately active,,
"O=C(C[n+]1cn(Cc2ccccc2)c2ccccc21)Nc1ccc(Cl)cc1.[Br-] [Compound 9b, 1-Benzyl-3-[2-{(4-chlorophenyl)amino}-2-oxoethyl]-1H-benzo[d]imidazol-3-ium bromide]",197 to 198,169.16 ± 0.023,,,
"O=C(C[n+]1cn(Cc2ccccc2)c2ccccc21)Nc1cccc(Br)c1.[Br-] [Compound 9d, 1-Benzyl-3-[2-{(3-bromophenyl)amino}-2-oxoethyl]-1H-benzo[d]imidazol-3-ium bromide]",176 to 178,171.11 ± 0.089,,,
"COc1ccc(NC(=O)C[n+]2c(C)n(Cc3ccccc3)c3ccccc32)cc1.[Br-] [Compound 10m, 1-Benzyl-3-[2-{(4-methoxyphenyl)amino}-2-oxoethyl]-2-methyl-1H-benzo[d]imidazole-3-ium bromide]",235 to 238,16.16 ± 0.026,,,
"O=C(C[n+]1cn(Cc2ccccc2)c2ccccc21)Nc1ccccc1[N+](=O)[O-].[Br-] [Compound 9f, 1-Benzyl-3-[2-{(2-nitrophenyl)amino}-2-oxoethyl]-1H-benzo[d]imidazol-3-ium bromide]",142 to 143,241 ± 0.027,,,
"COc1ccccc1NC(=O)C[n+]1c(C)n(Cc2ccccc2)c2ccccc21.[Br-] [Compound 10l, 1-Benzyl-3-[2-{(2-methoxyphenyl)amino}-2-oxoethyl]-2-methyl-1H-benzo[d]imidazol-3-ium bromide]",244 to 246,25 ± 0.011,,,
"Cc1n(Cc2ccccc2)c2ccccc2[n+]1CC(=O)Nc1ccc([N+](=O)[O-])cc1 [Compound 10h, 1-Benzyl-2-methyl-3-[2-{(4-nitrophenyl)amino)}-2-oxoethyl]-1H-benzo[d]imidazol-3-ium bromide]",,17 ± 0.067,promising α-glucosidase inhibitory results,,
"O=C(C[n+]1cn(Cc2ccccc2)c2ccccc21)Nc1ccccc1Br.[Br-] [Compound 9c, 1-Benzyl-3-[2-{(2-bromophenyl)amino}-2-oxoethyl]-1H-benzo[d]imidazol-3-ium bromide]",192 to 194,70.01 ± 0.037,,,
"Cc1ccccc1NC(=O)C[n+]1c(C)n(Cc2ccccc2)c2ccccc21.[Br-] [Compound 10i, 1-Benzyl-2-methyl-3-{2-oxo-2-(o-tolylamino)ethyl}-1H-benzo[d]imidazol-3-ium bromide]",168 to 170,100 ± 0.048,poor inhibitors; also recorded: lowest α-glucosidase inhibitory results in their respective series,,
"O=C(C[n+]1cn(Cc2ccccc2)c2ccccc21)Nc1ccc(Br)cc1 [Compound 9e, 1-Benzyl-3-[2-{(4-bromophenyl)amino)}-2-oxoethyl]-1H-benzo[d]imidazol-3-ium bromide]",,,,198 ± 0.103,
"Cc1ccc(NC(=O)C[n+]2cn(Cc3ccccc3)c3ccccc32)cc1.[Br-] [Compound 9k, 1-Benzyl-3-{2-oxo-2-(p-tolylamino)ethyl}-1H-benzo[d]imidazol-3-ium bromide]",148 to 149,201.13 ± 0.105,,,
"O=C(C[n+]1cn(Cc2ccccc2)c2ccccc21)Nc1cccc(Cl)c1.[Br-] [Compound 9a, 1-Benzyl-3-[2-{(3-chlorophenyl)amino}-2-oxoethyl]-1H-benzo[d]imidazol-3-ium bromide]",205 to 207,150.7 ± 0.045,,,
"Cc1n(Cc2ccccc2)c2ccccc2[n+]1CC(=O)Nc1cccc(Cl)c1.[Br-] [Compound 10a, 1-Benzyl-3-[2-{(3-chlorophenyl)amino}-2-oxoethyl]-2-methyl-1H-benzo[d]imidazol-3-ium bromide]",210 to 213,22 ± 0.04,,,
"Cc1cccc(NC(=O)C[n+]2c(C)n(Cc3ccccc3)c3ccccc32)c1.[Br-] [Compound 10j, 1-Benzyl-2-methyl-3-{2-oxo-2-(m-tolylamino)ethyl}-1H-benzo[d]imidazol-3-ium bromide]",192 to 194,60 ± 0.041,poor inhibitors,,
"Cc1n(Cc2ccccc2)c2ccccc2[n+]1CC(=O)Nc1ccccc1Br (as salt: bromide) [Compound 10c, 1-Benzyl-3-[2-{(2-bromophenyl)amino)}-2-oxoethyl]-2-methyl-1H-benzo[d]imidazol-3-ium bromide]",252,,,,
"Cc1n(Cc2ccccc2)c2ccccc2[n+]1CC(=O)Nc1cccc(Br)c1.[Br-] [Compound 10d, 1-Benzyl-3-[2-{(3-bromophenyl)amino}-2-oxoethyl]-2-methyl-1H-benzo[d]imidazol-3-ium bromide]",242,14 ± 0.013,higher activity than acarbose,,4
